Biological target: T1, GATA4–NKX2-5 transcriptional synergy (Mus musculus, UniProt P42582+Q08369)
T1 construct: expressed in transfected cells; host or cells: COS-1
Assay: GATA4–NKX2-5 transcriptional synergy luciferase reporter assay (3xNKE reporter, COS-1 cells)
Format: cell-based
Procedure: To screen compounds for the GATA4–NKX2-5 interaction, we have developed a luciferase reporter assay based on their property to activate gene transcription synergistically through the NKX2-5 binding site on DNA.[28] In this assay, we transfected mammalian COS-1 cells with protein expression vectors for GATA4 and NKX2-5 proteins together with artificial luciferase reporter vector containing three high affinity binding sites for NKX2-5 (NKE). […] All 257 compounds were tested in two concentrations, 3 and 10 μM. Compounds either inhibited, enhanced, or had no effect on the GATA4–NKX2-5 transcriptional synergy. To investigate the selectivity of the active compounds, we tested their effects on NKX2-5 transcriptional activity by using the same luciferase reporter vector as in transcriptional synergy assay with three NKE sites (Figure 3B). Furthermore, we used GATA luciferase reporter assay to examine if compounds have an effect on GATA4 transcriptional activity. In this assay, we cotransfected the cells with a GATA4 protein expression vector and a reporter vector with tandem GATA4 binding sites (Figure 3C). Previously we have reported that compound 1 inhibited the GATA4–NKX2-5 transcriptional synergy at micromolar concentrations (IC50 = 3 μM).[29]
The plasmids expressing mouse GATA4 protein, pMT2-GATA4, and empty pMT2 were gifts from D. B. Wilson (Department of Pediatrics, St. Louis Children’s Hospital, St. Louis, MO).[44] The plasmids expressing mouse NKX2-5 protein, pMT2-NKX2-5, have been described earlier.[28] The luciferase reporter plasmid used in GATA4–NKX2-5 transcriptional synergy assay and NKX transcriptional assay, pGL3-3xHA, contains three high affinity binding sites for NKX2-5.[28] The luciferase reporter plasmid used in GATA transcriptional assay, NP-112, contains tandem GATA-sites and minimal promoter of rat brain natriuretic peptide (BNP) gene.[45] The pGL3-BNP luciferase reporter containing −534/+4 bp rat BNP proximal promoter described previously was used in hypertrophy assay.[46]
The primary screening assay of compounds’ effect on GATA4–NKX2-5 transcriptional synergy and COS-1 cell culturing has been described earlier.[33] […] (Kinnunen et al., unpublished observation). Briefly, COS-1 cells were seeded at 14 000 cells/well in Isoplate-96 microplates (PerkinElmer, Turku, Finland) and grown overnight. The cells were transfected with the luciferase reporter plasmid pGL3-3xHA 100 ng/well and equal amounts of expression plasmids pMT2-GATA4 and pMT2-NKX2-5 total 50 ng/well. To verify the synergistic effect, the cells were transfected with pMT2-GATA4 or pMT2-NKX2-5 25 ng/well, and the total DNA concentration was adjusted to 50 ng/well with empty pMT2 plasmid. In NKX2-5 and GATA4 luciferase reporter assays, the cells were transfected with reporter plasmid pGL3-3xHA or NP-112 (100 ng/well) and expression plasmid pMT2-NKX2-5 or pMT2-GATA4 (25 ng/well). The ratio of DNA/transfection reagent (Fugene 6, Promega) was 1:3 in all assays. The transfections were performed in serum and antibiotics free media for 6 h. The cells were treated with compounds or vehicle (0.1% DMSO) for 24 h, and the luminescence was measured using neolite Reporter Gene Assay System (PerkinElmer, Turku, Finland) and Victor2 plate reader (PerkinElmer, Turku, Finland).
Raw luciferase data were analyzed in Excel, and clear outliers were removed from triplicates by using the Grubb’s test. Data analysis was performed using R.[49] The luciferase data were first normalized on the basis of the combined mean value of controls. For data visualization and creation of figures, the following R packages were used: ggplot2, cowplot, RColorBrewer, and pheatmap. The heatmaps of the toxicity data were produced with GraphPad Prism 7.00 (GraphPad Software, La Jolla, CA). Statistical significance of luciferase reporter assay data was evaluated by randomized block analysis of variance followed by Dunnett’s post hoc test. […]

[1] = COS-1, compound at 3 µM, luciferase reporter activity, % of control
[2] = COS-1, compound 3 µM, luciferase reporter activity, spread in separate STDEV column
[3] = COS-1, 3 µM, luciferase reporter activity, % of control
[4] = 3 µM compound, GATA4–NKX2-5 transcriptional synergy reporter, COS-1 cells
[5] = 10 µM compound, GATA4–NKX2-5 transcriptional synergy reporter, COS-1 cells
[6] = COS-1, compound 3 µM, luciferase reporter activity relative to control
[7] = COS-1, compound 10 µM, luciferase reporter activity relative to control

T1 sequence (Q08369 whole entry): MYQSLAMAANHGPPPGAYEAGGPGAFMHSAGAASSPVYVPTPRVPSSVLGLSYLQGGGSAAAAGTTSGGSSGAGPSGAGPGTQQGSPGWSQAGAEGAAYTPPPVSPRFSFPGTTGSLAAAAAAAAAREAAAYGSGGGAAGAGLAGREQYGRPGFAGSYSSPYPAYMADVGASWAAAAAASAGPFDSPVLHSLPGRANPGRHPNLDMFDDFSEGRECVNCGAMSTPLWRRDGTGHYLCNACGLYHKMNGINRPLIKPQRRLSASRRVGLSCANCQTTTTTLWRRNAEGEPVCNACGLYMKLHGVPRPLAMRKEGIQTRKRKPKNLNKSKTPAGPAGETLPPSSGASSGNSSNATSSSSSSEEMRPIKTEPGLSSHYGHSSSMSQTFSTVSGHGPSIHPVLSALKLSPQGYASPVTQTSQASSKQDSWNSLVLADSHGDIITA
T1 sequence (P42582 whole entry): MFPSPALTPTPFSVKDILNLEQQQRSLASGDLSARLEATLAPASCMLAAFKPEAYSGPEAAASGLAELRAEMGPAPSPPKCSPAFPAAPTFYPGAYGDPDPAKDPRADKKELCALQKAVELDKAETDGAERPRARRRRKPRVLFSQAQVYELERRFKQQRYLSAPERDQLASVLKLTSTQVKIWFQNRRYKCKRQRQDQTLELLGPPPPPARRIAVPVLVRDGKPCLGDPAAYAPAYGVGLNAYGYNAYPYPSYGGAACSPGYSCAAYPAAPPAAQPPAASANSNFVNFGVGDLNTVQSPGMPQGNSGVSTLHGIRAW

| activity at 3 µM [1] | activity at 3 µM [6] | SMILES | further results |
| --- | --- | --- | --- |
| 96.5% |  | CCC(O)c1ccc(OCc2c(-c3ccccc3)noc2C)cc1 (racemic) [Compound 34d, (rac)-1-[4-[(5-Methyl-3-phenylisoxazol-4-yl)methoxy]phenyl]propan-1-ol] |  |
|  | 81.6% | CCN(CC)c1ccc(N(CCF)C(=O)c2c(-c3ccccc3)noc2C)cc1 [Compound 25b] |  |
|  | 103% | CCN(CC)c1ccc(CN(C)c2c(-c3ccccc3)noc2C)cc1 [Compound 30a, N-[4-(Diethylamino)benzyl]-N,5-dimethyl-3-phenylisoxazol-4-amine] |  |
|  | 90% | CCN(CC)c1ccc(CN(C(=O)Nc2ccc(C#N)cc2)c2c(-c3ccccc3)noc2C)cc1 [Compound 30d] |  |
|  | 97.7% | CCCOC(=O)c1ccc(OCc2c(-c3ccccc3)noc2C)cc1 [Compound 34c, Propyl 4-[(5-Methyl-3-phenylisoxazol-4-yl)methoxy]benzoate] | activity at 10 µM [7]: 107% |
|  | 114% | Cc1onc(-c2ccccc2)c1COc1ccc(C(=O)OCc2ccoc2)cc1 [Compound 35c] | activity at 10 µM [7]: 101% |
|  | 87.7% | Cc1onc(-c2ccccc2)c1COc1ccc(C(=O)OCC(C)C)cc1 [Compound 35e] |  |
|  | 106% | Cc1onc(-c2ccccc2)c1COc1ccc(C(=O)N(C)CCCO)cc1 [Compound 36a] | activity at 10 µM [7]: 105% |
|  | 79.3% | CCN(CC)C(=O)c1ccc(OCc2c(-c3ccccc3)noc2C)cc1 [Compound 36b] |  |
| 88.9% |  | CCN(CC)c1ccc(NC(=O)c2c(-c3c(Cl)cccc3Cl)noc2C)cc1 [Compound 39e, 3-(2,6-Dichlorophenyl)-N-[4-(diethylamino)phenyl]-5-methylisoxazole-4-carboxamide] |  |
| 76.3% |  | CCN(CC)c1ccc(NC(=O)c2c(-c3c(Cl)ccc([N+](=O)[O-])c3Cl)noc2C)cc1 [Compound 39f, 3-(2,6-Dichloro-3-nitrophenyl)-N-[4-(diethylamino)phenyl]-5-methylisoxazole-4-carboxamide] |  |
| 89.5% |  | CCN(CC)c1ccc(NC(=O)c2c(-c3ccccc3[N+](=O)[O-])noc2C)cc1 [Compound 39h] |  |

More lines, now with the values behind:

| SMILES | activity at 3 µM [1] | activity at 3 µM [6] | further results |
| --- | --- | --- | --- |
| Cc1onc(-c2ccccc2)c1C(=O)Nc1ccc2c(c1)C(=O)CC2 [Compound 4a, 5-Methyl-N-(3-oxo-2,3-dihydro-1H-inden-5-yl)-3-phenylisoxazole-4-carboxamide] |  |  | activity at 3 µM [2]: 103% |
| CCN(CCO)c1ccc(NC(=O)c2c(-c3ccccc3)noc2C)cc1 [Compound 4b] | 93.7% |  |  |
| CCN(CC)c1ccc(NC(=O)c2c(-c3ccccc3)noc2C)cc1Cl [Compound 4c] |  |  | activity at 3 µM [2]: 92.6% |
| Cc1onc(-c2ccccc2)c1C(=O)Nc1ccc(N(C)C)cc1 [Compound 4d, N-[4-(Dimethylamino)phenyl]-5-methyl-3-phenylisoxazole-4-carboxamide] |  |  | activity at 3 µM [3]: 88.1% |
| Cc1cc(NC(=O)c2c(-c3ccccc3)noc2C)ccc1C(C)C [Compound 4e] |  |  | activity at 3 µM [3]: 95.2% |
| Cc1onc(-c2ccccc2)c1C(=O)Nc1ccc(OCCN2CCOCC2)cc1 [Compound 4h] |  |  | activity at 3 µM [3]: 89.8% |
| CC[N+](C)(c1ccc(NC(=O)c2c(-c3ccccc3)noc2C)cc1)C(C)C (centres unmarked) [Compound 7, N-Ethyl-N-isopropyl-N-methyl-4-(5-methyl-3-phenylisoxazole-4-carboxamido)benzenaminium Iodide] | 88.4% |  |  |
| CCN(c1ccc(NC(=O)c2c(-c3ccccc3)noc2C)cc1[N+](=O)[O-])C(C)C [Compound 8, N-[4-[Ethyl(isopropyl)amino]-3-nitrophenyl]-5-methyl-3-phenylisoxazole-4-carboxamide] | 76.3% |  |  |
| CCN(c1ccc(NC(=O)c2c(-c3ccccc3)noc2C)cc1N)C(C)C [Compound 9, N-[3-Amino-4-[ethyl(isopropyl)amino]phenyl]-5-methyl-3-phenylisoxazole-4-carboxamide] | 92.6% |  |  |
| Cc1onc(-c2ccccc2)c1C(=O)Nc1ccc(C(=O)OCC#N)cc1 [Compound 10a, Cyanomethyl 4-(5-Methyl-3-phenylisoxazole-4-carboxamido)benzoate] |  |  | activity at 3 µM [4]: 95% |
| Cc1onc(-c2ccccc2)c1C(=O)Nc1ccc(C(=O)OCCN(C)C)cc1 [Compound 10d] |  |  | activity at 3 µM [2]: 99.6%; activity at 10 µM (COS-1, compound 10 µM, luciferase reporter activity, spread in separate STDEV column): 115% |
| C#Cc1ccc(NC(=O)c2c(-c3ccccc3)noc2C)cc1 [Compound 15, N-(4-Ethynylphenyl)-5-methyl-3-phenylisoxazole-4-carboxamide] |  |  | activity at 3 µM [4]: 93.2% |
| CCN(CC)c1ccc(N(Cc2c(-c3ccccc3)noc2C)C(C)=O)cc1 [Compound 16, N-[4-(Diethylamino)phenyl]-N-[(5-methyl-3-phenylisoxazol-4-yl)methyl]acetamide] |  |  | activity at 3 µM [4]: 93.1% |
| CCN(CC)c1ccc(/N=C/c2c(-c3ccccc3)noc2C)cc1 [Compound 19, (E)-N^1,N^1-Diethyl-N^4-[(5-methyl-3-phenylisoxazol-4-yl)methylene]benzene-1,4-diamine] |  |  | activity at 3 µM [4]: 102%; activity at 10 µM [5]: 99.7% |
| CCN(CC)c1ccc(NCc2c(-c3ccccc3)noc2C)cc1 [Compound 20, N^1,N^1-Diethyl-N^4-[(5-methyl-3-phenylisoxazol-4-yl)methyl]benzene-1,4-diamine] |  |  | activity at 3 µM [4]: 85.3%; activity at 10 µM [5]: 104% |
| CCN(CC)c1ccc(NS(=O)(=O)c2c(-c3ccccc3)noc2C)cc1 [Compound 21, N-[4-(Diethylamino)phenyl]-5-methyl-3-phenylisoxazole-4-sulfonamide] |  | 104% |  |
| Cc1onc(-c2ccccc2)c1COc1ccc([N+](=O)[O-])cc1 [Compound 21b] |  |  | activity at 3 µM [3]: 94% |
| CCN(CC)c1ccc(NC(=S)c2c(-c3ccccc3)noc2C)cc1 [Compound 23, N-[4-(Diethylamino)phenyl]-5-methyl-3-phenylisoxazole-4-carbothioamide] | 90.6% |  |  |
| CCN(CC)c1ccc(/N=C(\SC)c2c(-c3ccccc3)noc2C)cc1 [Compound 24a] | 72.7% |  |  |
| CCN(CC)c1ccc(/N=C(\SCCF)c2c(-c3ccccc3)noc2C)cc1 [Compound 24b] | 122% |  | activity at 10 µM (COS-1, compound at 10 µM, luciferase reporter activity, % of control): 108% |
| CCN(CC)c1ccc(N(Cc2ccccc2)C(=O)c2c(-c3ccccc3)noc2C)cc1 [Compound 25c] |  |  | activity at 3 µM [3]: 80.2% |
| CCN(CC)c1ccc(N(C)C(=S)c2c(-c3ccccc3)noc2C)cc1 [Compound 26] |  | 92.9% |  |
| CCN(CC)c1ccc(C(=O)Nc2c(-c3ccccc3)noc2C)cc1 [Compound 27] | 98.5% |  |  |
| CCN(CC)c1ccc(/C=N/c2c(-c3ccccc3)noc2C)cc1 [Compound 31, (E)-N-[4-(Diethylamino)benzylidene]-5-methyl-3-phenylisoxazol-4-amine] |  | 94.1% |  |
| Cc1onc(-c2ccccc2)c1COc1ccc(C(=O)O)cc1 [Compound 38, 4-[(5-Methyl-3-phenylisoxazol-4-yl)methoxy]benzoic Acid] |  | 102% |  |
| CCN(CC)c1ccc(NC(=O)c2c(-c3ccc([N+](=O)[O-])cc3)noc2C)cc1 [Compound 39a] |  |  | activity at 3 µM [3]: 89.2%; activity at 10 µM (COS-1, 10 µM, luciferase reporter activity, % of control): 99.8% |
| CCN(CC)c1ccc(NC(=O)c2c(-c3ccc(Br)cc3)noc2C)cc1 [Compound 39i] |  |  | activity at 3 µM [4]: 95.1% |
